In BindingDB's records for doi:10.1021/jm9904102 (Abbott Laboratories, 2000) one finds IC50 data, which are given here for 29 compounds.

This assay in a line: Inhibition of calcium ionophore (A-23187)-stimulated LTB4 formation in human neutrophil assay.
As a reminder, the IC50 is the concentration at which inhibition is half-maximal. Regarding `O=C(O)/C=N/OC(c1ccc(OCc2nc3ccccc3s2)cc1Cl)C1CCCCC1` (centres undefined) [{[4-(Benzothiazol-2-ylmethoxy)-2-chloro-phenyl]-cyclohexyl-methoxyimino}-acetic acid], the IC50 stood at 0.028 µM.

In the case of `O=C(O)/C(CSCCO)=N/OC(c1ccc(OCc2ccc3ccccc3n2)cc1)C1CCCCC1` (centres undefined) [2-{Cyclohexyl-[4-(quinolin-2-ylmethoxy)-phenyl]-methoxyimino}-3-(2-hydroxy-ethylsulfanyl)-propionic acid], the IC50 came to 0.181 µM. For `O=C(O)/C=N/OC(CC1CCCCC1)c1ccc(OCc2ccc3ccccc3n2)cc1` (centres undefined) [{2-Cyclohexyl-1-[4-(quinolin-2-ylmethoxy)-phenyl]-ethoxyimino}-acetic acid] the value was 0.027 µM.

With `C/C(=N\OC(c1cc2cc(OCc3ccc4ccccc4n3)ccc2s1)C1CCCCC1)C(=O)O` (centres undefined) [2-{Cyclohexyl-[5-(quinolin-2-ylmethoxy)-benzo[b]thiophen-2-yl]-methoxyimino}-propionic acid], the IC50 worked out at 0.033 µM. In the case of `CC(C)(CC(O/N=C/C(=O)O)c1ccc(OCc2ccc3ccccc3n2)cc1)c1ccccc1` (centres undefined) [{3-Methyl-3-phenyl-1-[4-(quinolin-2-ylmethoxy)-phenyl]-butoxyimino}-acetic acid] it was 0.01 µM; in that of `C/C(=N\OCC(c1ccc(OCc2ccc3ccccc3n2)cc1)C1CCCCC1)C(=O)O` (centres undefined) [2-{2-Cyclohexyl-2-[4-(quinolin-2-ylmethoxy)-phenyl]-ethoxyimino}-propionic acid], 0.02 µM; in that of `O=C(O)/C=N/OC(c1ccc(OCc2nc3ccccc3s2)cc1Br)C1CCCCC1` (centres undefined) [{[4-(Benzothiazol-2-ylmethoxy)-2-bromo-phenyl]-cyclohexyl-methoxyimino}-acetic acid], 0.022 µM. In the case of `C/C(=N\OC(CCCc1ccc(F)cc1)c1ccc(OCc2ccc3ccccc3n2)cc1)C(=O)O` (centres undefined) [2-{4-(4-Fluoro-phenyl)-1-[4-(quinolin-2-ylmethoxy)-phenyl]-butoxyimino}-propionic acid] it was 0.009 µM; in that of `O=C(O)/C=N/OC(c1ccc(OCc2csc(-c3ccc(Cl)cc3)n2)cc1)C1CCCCC1` (centres undefined) [({4-[2-(4-Chloro-phenyl)-thiazol-4-ylmethoxy]-phenyl}-cyclohexyl-methoxyimino)-acetic acid], 0.49 µM. In the case of `C/C(=N\OC(c1ccc(OCc2ccc3ccccc3n2)cc1Cl)C1CCCCC1)C(=O)O` (centres undefined) [2-{[2-Chloro-4-(quinolin-2-ylmethoxy)-phenyl]-cyclohexyl-methoxyimino}-propionic acid] it was 0.014 µM; in that of `C/C(=N\OC(c1ccc(OCc2nc3ccccc3s2)cc1)C1CCCCC1)C(=O)O` (centres undefined) [2-{[4-(Benzothiazol-2-ylmethoxy)-phenyl]-cyclohexyl-methoxyimino}-propionic acid (0.5H2O)], 0.06 µM. Turning to `O=C(O)/C=N/OC(c1ccc(OCc2nc3cc(F)ccc3s2)cc1Cl)C1CCCCC1` (centres undefined) [{[2-Chloro-4-(5-fluoro-benzothiazol-2-ylmethoxy)-phenyl]-cyclohexyl-methoxyimino}-acetic acid], the IC50 is 0.014 µM. For `O=C(O)/C(Cc1ccc(O)cc1)=N/OC(c1ccc(OCc2ccc3ccccc3n2)cc1)C1CCCCC1` (centres undefined) [2-{Cyclohexyl-[4-(quinolin-2-ylmethoxy)-phenyl]-methoxyimino}-3-(4-hydroxy-phenyl)-propionic acid] the value was 0.043 µM. On to `C/C(=N\OC(c1cc(OCc2ccc3ccccc3n2)on1)C1CCCCC1)C(=O)O` (centres undefined) [2-{Cyclohexyl-[5-(quinolin-2-ylmethoxy)-isoxazol-3-yl]-methoxyimino}-propionic acid], for which the IC50 came to 0.49 µM. Regarding `CC(C)(C)Sc1c(CC(C)(C)C(=O)O)n(Cc2ccc(Cl)cc2)c2ccc(OCc3ccc4ccccc4n3)cc12` [MK-591], the IC50 is 0.008 µM. With `CC(C)c1ccc(-c2csc(COc3ccc(C(O/N=C/C(=O)O)C4CCCCC4)cc3)n2)cc1` (centres undefined) [(Cyclohexyl-{4-[4-(4-isopropyl-phenyl)-thiazol-2-ylmethoxy]-phenyl}-methoxyimino)-acetic acid (2H2O)], the IC50 was 0.035 µM. For `O=C(O)/C=N/OC(c1ccc(OCc2nc(-c3ccccc3)cs2)cc1)C1CCCCC1` (centres undefined) [{Cyclohexyl-[4-(4-phenyl-thiazol-2-ylmethoxy)-phenyl]-methoxyimino}-acetic acid (1.25H2O)] the value was 0.021 µM; for `O=C(O)/C=N/OC(c1ccc(-c2ccc3ccccc3n2)cc1)C1CCCCC1` (centres undefined) [[Cyclohexyl-(4-quinolin-2-yl-phenyl)-methoxyimino]-acetic acid(0.25H2O)], 1.2 µM. In the case of `C/C(=N\OC(c1ccc(OCc2nc(-c3ccccc3)cs2)cc1)C1CCCCC1)C(=O)O` (centres undefined) [2-{Cyclohexyl-[4-(4-phenyl-thiazol-2-ylmethoxy)-phenyl]-methoxyimino}-propionic acid (0.5H2O)] it was 0.02 µM; in that of `C/C(=N\OC(c1ccc(OCc2ccc3ccccc3n2)cc1)c1cccs1)C(=O)O` (centres undefined) [2-{[4-(Quinolin-2-ylmethoxy)-phenyl]-thiophen-2-yl-methoxyimino}-propionic acid], 0.033 µM. For `O=C(O)c1ccc(/C=N/OC(c2ccc(OCc3ccc4ccccc4n3)cc2)C2CCCCC2)cc1` (centres undefined) [4-({Cyclohexyl-[4-(quinolin-2-ylmethoxy)-phenyl]-methoxyimino}-methyl)-benzoic acid] the value was 0.031 µM; for `O=C(O)/C=N/OC(c1ccc(OCc2nc3ccccc3o2)cc1)C1CCCCC1` (centres undefined) [{[4-(Benzooxazol-2-ylmethoxy)-phenyl]-cyclohexyl-methoxyimino}-acetic acid (0.5H2O)], 0.143 µM. Turning to `O=C(O)/C=N/OCC(c1ccc(OCc2ccc3ccccc3n2)cc1)C1CCCCC1` (centres undefined) [{2-Cyclohexyl-2-[4-(quinolin-2-ylmethoxy)-phenyl]-ethoxyimino}-acetic acid (0.25H2O)], the IC50 was 0.047 µM. For `CC(/C=C/C(=O)O)=N\OC(c1ccc(OCc2ccc3ccccc3n2)cc1)C1CCCCC1` (centres undefined) [4-{Cyclohexyl-[4-(quinolin-2-ylmethoxy)-phenyl]-methoxyimino}-pent-2-enoic acid (0.25H2O)] the value was 0.04 µM; for `C/C(=N\OC(c1ccc(OCc2ccc3ccccc3n2)cc1SC1CCCCC1)C1CCCCC1)C(=O)O` (centres undefined) [2-{Cyclohexyl-[2-cyclohexylsulfanyl-4-(quinolin-2-ylmethoxy)-phenyl]-methoxyimino}-propionic acid], 0.09 µM; for `C/C(=N\OC(c1ccc(OCc2ccc3cc(F)ccc3n2)cc1)C1CCCCC1)C(=O)O` (centres undefined) [2-{Cyclohexyl-[4-(6-fluoro-quinolin-2-ylmethoxy)-phenyl]-methoxyimino}-propionic acid], 0.02 µM. Regarding `O=C(O)/C=N/OC(c1ccc(OCc2nc3cc(F)ccc3s2)cc1)C1CCCCC1` (centres undefined) [{Cyclohexyl-[4-(5-fluoro-benzothiazol-2-ylmethoxy)-phenyl]-methoxyimino}-acetic acid], the IC50 was found to be 0.087 µM. For `O=C(O)/C=N/OC(c1ccc(CCc2ccc3ccccc3n2)cc1)C1CCCCC1` (centres undefined) [{Cyclohexyl-[4-(2-quinolin-2-yl-ethyl)-phenyl]-methoxyimino}-acetic acid (0.25H2O)] the value was 0.29 µM; for `O=C(O)/C=N/OC(c1ccc(OCc2ccc3ccccc3n2)cc1)C1CCCC1` (centres undefined) [{Cyclopentyl-[4-(quinolin-2-ylmethoxy)-phenyl]-methoxyimino}-acetic acid], 0.03 µM.
